Laboratory results taken from patent publication EP3147364A1, “ANTIVIRAL AGENTS COMPRISING AN OLIGONUCLEOTIDE-LIPID CONJUGATE FORMING G-QUADRUPLEX” (priority 2015, dated 2017).

What was measured:
NL4.3-Ren [1] = format: cell-based, HIV-1; conditions: text does not say which of assays A and B (Figs. 4 and 5)
[2] = Cytotoxicity (viability) assay in Huh7/Scr cells (CytoTox-Glo); format: cell-based; conditions: human
Luc-Jc1 virus = assay: HCVcc infection: Luc-Jc1 virus on Huh7/Scr cells, Firefly luciferase
NL4.3-Ren [3] = assay: Transfection experiment: pNL4.3-Ren viruses produced in 293T cells in presence of drug, quantified and tested for infectivity on SupT1 cells; format: cell-based, HIV-1; conditions: drug added to transfected 293T cells for 24h; supernatants on SupT1 cells (Fig. 7a)

CCCC/C=C\C/C=C\CCCCCCCCCOCC(O)CO (centres unmarked) [3-[(10Z,13Z)-octadeca-10,13-dien-1-yloxy]propane-1,2-diol]
antiviral effect (NL4.3-Ren [1]): no effect

Cc1nc(Nc2ncc(C(=O)Nc3c(C)cccc3Cl)s2)cc(N2CCN(CCO)CC2)n1 [Dasatinib]
CC50 at 72 h [2]: 20.3 µM
EC50 (Luc-Jc1 virus; Hepatitis C virus, Huh-7, 72 h): 1.47 µM
SI (Luc-Jc1 virus; Selectivity Index from EC50 and CC50): 13.81

CC(C)CN(C[C@@H](O)[C@H](Cc1ccccc1)NC(=O)O[C@H]1CCOC1)S(=O)(=O)c1ccc(N)cc1 [APV, Amprenavir]
inhibition of infection by viruses produced in presence of drug (NL4.3-Ren [3]): inhibition of infection is detected
